Experimental data as given in patent US10787430B2, “Hemoglobin modifier compounds and uses thereof” (FronThera U.S. Pharmaceuticals LLC, priority 2016, dated 2020).
Structures can show the parent of a compound that is named as a salt. Where two headings read alike, the source gives them in different places. Each block holds one compound with its values, some of them ahead of it.

Tests used:
[1] = Pharmacokinetic study in rats (plasma and red blood cell); type: in vivo; details: male, Sprague-Dawley, rat, oral, 7.2 mg/kg
Experimental: Rats (Sprague-Dawley, male, 220-280 g) were dosed with GBT-440 (HCl salt) and one of three compounds corresponding to Example 27, 29, and 38. The rats received oral (7.2 mpk) doses of the compound. Rats were fasted overnight before the experiments and provided with food four hours after dosing. The oral dosing formulations was prepared as follows: approximately 10 mg of compound was weighed precisely to an appropriate size of container, to which was added 2 mL of vehicle 0.5% methylcellulose in water and 8 μL 0.5% sodium dodecyl sulfate. The mixture was then transferred into a glass vial, and volume adjusted to appropriate volume with 0.5% methylcellulose to obtain a final concentration of 0.72 mg·mL^−1, and then vortexed and sonicated briefly.
Whole blood sample collection: Blood samples ([…]) were collected at pre-dose, 15, 30 min, 1, 2, 4, 8, 12 and 24 h via jugular vein into tubes and anticoagulated with 3.2% TSC (trisodium citrate). The proportion of anticoagulant and blood was 1:9 (v/v). The sampling time was recorded accordingly. The tubes were gently inverted several times to ensure mixing. Then 10 μL doses of whole blood sample was transferred to a new EP tube and duplicated in wet ice.
Plasma sample collection: The remaining whole blood was processed by centrifugation at 5,500 rpm for 10 min. The supernate was collected. All these whole blood and plasma samples were kept below −20° C. for 1 h prior to analysis.
(§1) Plasma sample preparation: An aliquot of 20 μL of sample was transferred to sample treatment tube (1.5 mL EP tube), and then 100 μL ACN (0.5% FA) containing Verapamil, 5 ng·mL^−1 and Glibenclamide, 50 ng·mL^−1 for protein precipitation was added. The mixture was vortexed for 30 min, and then centrifuged at 13000 rpm for 5 min at room temperature. After that, 70 μL of supernatant was transferred to a 96-Well Plate, to which 70 μL of water added and then vortexed for 10 min at room temperature. An aliquot of 10 μL of this mixture was analyzied using LC-MS/MS.
as §1, with “Whole blood” for “Plasma”, “10” for “20”, “500” for “100”, “water was” for “water”, “analyzed” for “analyzied”
Plasma and red blood cell concentration-time data were processed by linear regression analysis. All pharmacokinetic parameters were calculated using non-compartment model of Pharsight Phoenix 6.3.
Red blood cell concentrations were calculated according to the method below: Mass balance equation: Cb·VB=Cp·Vp+CBC·VBC Where, Cb=Concentration of whole blood; VB=Volume of whole blood; Cp=Concentration of plasma; Vp=Volume of plasma; CBC=Concentration of blood cell; VBC=Volume of blood cell. VBC=H·VB, where H is the hematocrit number. Vp=(1−H)·VB

[2] = Solubility in JP1, JP2 and FaSSIF buffers; type: physicochemical; details: 25 °C, thermodynamic from solid, room temperature
Experimental: Conditions: 1. JP1 buffer (84 mM HCl, 34.22 mM NaCl, pH 1.2); 2. JP2 buffer (50 mM phosphate buffer at pH 6.8); 3. FaSSIF buffer, pH 6.5 (Preparation: In about 0.9 L of purified water dissolve 0.420 g of NaOH (pellets), 4.470 g of NaH2PO4 (dihydrate), 6.186 g of NaCl; Adjust the pH to 6.5 with Sodium hydroxide 1N or Hydrochloric acid 1N, to make up to volume (1 L) with purified water at room temperature; Add 0.224 g of SIF Powder Original to about 0.5 L of pH 6.5 blank buffer and stir until powder is completely dissolved; Let stand for 2 hour. FaSSIF buffer is now ready to use.
Procedures: 1. accurately weighed about 2 mg test compounds and controls in whatman vials, then transferred 450 μL buffer in to the vials; 2. Filter pistons of miniuniprep vials were placed and compressed to the position of the liquid level to allow for contact. Vortexed for 2 minutes; 3. […] Miniunipreps were compressed to prepare the filtrates for injection into HPLC system; 5. Diluted the filtrates with buffer by a factor of 50 fold to make diluents; 6. Determined the test compound concentration of the diluents and filtrates using HPLC-UV.

[3] = molecular target: T1, hemoglobin (normal human adult blood) (Homo sapiens, UniProt P68871+P69905); assay: Time-dependent oxygen equilibrium curve (OEC) studies in normal whole blood; type: cell-based; details: 2 mM compound, 2% DMSO, normal human blood 20% hematocrit, 37° C., 1 h
T1 construct: Normal whole blood was collected from adult healthy donors; from tissue; host or cells: normal human whole blood (red blood cells), adult healthy donors
Experimental: Materials: Normal whole blood was collected from adult healthy donors at the Virginia Commonwealth University after informed consent. The use of these human samples is in accordance with regulations of the IRB for Protection of Human Subjects. Compounds (50 mM-100 mM concentration in DMSO) were stored at 15° C. or room temperature until use.
The time-dependent OEC studies were conducted on normal human adult blood samples with hematocrit value of 20% in the absence or presence of effectors solubilized in DMSO at final drug and DMSO concentrations of 2 mM and 2%, respectively. […] The mixture was further incubated at 37° C. with shaking. […] After equilibration, the sample was removed by syringe and aspirated into a ABL 700 series table top automated blood gas analyzer (Radiometer America, Inc., Westlake, Ohio) to determine values of total hemoglobin (tHb), methemoglobin (metHb), hematocrit (Hct), pH, partial pressure of oxygen (pO2), and Hb oxygen saturation values (sO2). The measured values of sO2 and pO2 at each partial pressure of oxygen are then subjected to a non-linear regression analysis using the program Scientist (Micromath, Salt Lake City, Utah) with the following equation: […]
This equation was used to calculate P50 and Hill coefficient (N) values. Corresponding control experiments without the test compound (P50control) but containing DMSO were also performed. GBT440 was used as a positive control.

[4] = red blood cells, red blood cell (calculated by mass balance from whole blood and plasma), read-out: AUC0-24 h RBC
[5] = red blood cells, red blood cell (calculated by mass balance from whole blood and plasma), read-out: Cmax RBC
[6] = red blood cells, red blood cell, read-out: T1/2 RBC (converted)
[7] = plasma, read-out: AUC0-24 h Plasma
[8] = plasma, read-out: T1/2 Plasma (converted)
[9] = aqueous buffer, JP2 buffer (50 mM phosphate) pH 6.8, 24 hr, read-out: JP2 Solubility
[10] = simulated gastric fluid, JP1 buffer pH 1.2, 24 hr, read-out: JP1 Solubility
[11] = FaSSIF buffer pH 6.5, 24 hr, read-out: FaSSIF Solubility

T1 sequence (P69905 2-142 limits assumed): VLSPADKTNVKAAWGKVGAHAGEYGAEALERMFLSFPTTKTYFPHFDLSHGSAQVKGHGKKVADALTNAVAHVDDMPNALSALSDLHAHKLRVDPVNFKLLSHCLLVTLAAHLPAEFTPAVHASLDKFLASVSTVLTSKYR
T1 sequence (P68871 2-147 limits assumed): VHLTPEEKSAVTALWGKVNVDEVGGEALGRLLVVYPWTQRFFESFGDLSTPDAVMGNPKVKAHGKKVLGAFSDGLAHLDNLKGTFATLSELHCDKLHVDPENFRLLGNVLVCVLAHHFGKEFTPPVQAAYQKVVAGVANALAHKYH

Compound: CC(C)n1nccc1-c1ncccc1COc1ccc2c(c1C=O)C(O)C(F)(F)O2 (centres unmarked) [Example 9, 2,2-difluoro-3-hydroxy-5-((2-(1-isopropyl-1H-pyrazol-5-yl)pyridin-3-yl)methoxy)-2,3-dihydrobenzofuran-4-carbaldehyde]
- delta p50 [3]: −64%

Compound: CC(C)n1nccc1-c1ncccc1COc1ccn2nnnc2c1C=O [Example 13, 7-((2-(1-isopropyl-1H-pyrazol-5-yl)pyridin-3-yl)methoxy)tetrazolo[1,5-a]pyridine-8-carbaldehyde]
- delta p50 [3]: −9%

Compound: CC(C)n1nccc1-c1ncccc1CSc1cccc(O)c1C=O [Example 23, 2-hydroxy-6-(((2-(1-isopropyl-1H-pyrazol-5-yl)pyridin-3-yl)methyl)thio)benzaldehyde]
- delta p50 [3]: −62%

Compound: CC(C)n1nccc1-c1ncccc1COc1ccc2c(c1C=O)OCO2 [Example 6, 5-((2-(1-isopropyl-1H-pyrazol-5-yl)pyridin-3-yl)methoxy)benzo[d][1,3]dioxole-4-carbaldehyde]
- delta p50 [3]: −66%

Compound: CC(C)n1nccc1-c1ncccc1COc1ccc2sccc2c1C=O [Example 20, 5-((2-(1-isopropyl-1H-pyrazol-5-yl)pyridin-3-yl)methoxy)benzo[b]thiophene-4-carbaldehyde]
- delta p50 [3]: −74%

Compound: [2H]C(=O)c1c(O)cccc1OCc1cccnc1-c1ccnn1C(C)C [Example 24]
- delta p50 [3]: −47%

Compound: CC(C)n1nccc1-c1ncccc1COc1ccc2c(c1C=O)C(O)C(F)(F)C2 (centres unmarked) [Example 10, 2,2-difluoro-3-hydroxy-5-((2-(1-isopropyl-1H-pyrazol-5-yl)pyridin-3-yl)methoxy)-2,3-dihydro-1H-indene-4-carbaldehyde]
- delta p50 [3]: −68%

Compound: CC(C)n1nccc1-c1ncccc1COc1ccc2c(c1C=O)CCO2 [Example 2, 5-((2-(1-isopropyl-1H-pyrazol-5-yl)pyridin-3-yl)methoxy)-2,3-dihydrobenzofuran-4-carbaldehyde]
- delta p50 [3]: −78%

Compound: CC(C)n1nccc1-c1ncccc1COc1cc2c(cc1C=O)OCC2 [Example 3, 5-((2-(1-isopropyl-1H-pyrazol-5-yl)pyridin-3-yl)methoxy)-2,3-dihydrobenzofuran-6-carbaldehyde]
- delta p50 [3]: −62%

Compound: CC(C)n1nccc1-c1ncccc1COc1ccc2c(c1C=O)OCC2 [Example 4, 6-((2-(1-isopropyl-1H-pyrazol-5-yl)pyridin-3-yl)methoxy)-2,3-dihydrobenzofuran-7-carbaldehyde]
- delta p50 [3]: −51%

Compound: CC(C)n1nccc1-c1ncccc1COc1ccc2c(c1C=O)OC(F)(F)O2 [Example 8, 2,2-difluoro-5-((2-(1-isopropyl-1H-pyrazol-5-yl)pyridin-3-yl)methoxy)benzo[d][1,3]dioxole-4-carbaldehyde]
- delta p50 [3]: −68%

Results, then the compound that gave them:

- AUC(0-t) [1, 4]: 3440 µg·h/mL
- Cmax [1, 5]: 216 µg/mL
- half-life [1, 6]: 17 h
- AUC(0-t) [1, 7]: 22.8 µg·h/mL
- Cmax ([1]; plasma, read-out: Cmax Plasma): 2.15 µg/mL
- half-life [1, 8]: 19 h
- solubility at 24 h [2, 9]: 28 µg/mL
- solubility at 24 h [2, 10]: 986 µg/mL
- solubility at 24 h [2, 11]: 95.7 µg/mL
Compound: CC(C)n1nccc1-c1ncccc1COc1cccc(O)c1C=O [GBT-440 (HCl salt), reference compound]

- delta p50 [3]: −64%
Compound: CC(C)n1nccc1-c1nccc2c1[C@H](Oc1cccc(O)c1C=O)CO2 [Example 62b, (S)-2-hydroxy-6-((4-(1-isopropyl-1H-pyrazol-5-yl)-2,3-dihydrofuro[3,2-c]pyridin-3-yl)oxy)benzaldehyde]

- AUC(0-t) [1, 4]: 12000 µg·h/mL
- Cmax [1, 5]: 1240 µg/mL
- half-life [1, 6]: 10 h
- AUC(0-t) [1, 7]: 42.6 µg·h/mL
- Cmax ([1]; plasma, read-out: Cmax Plasma): 4.01 µg/mL
- half-life [1, 8]: 12 h
- solubility at 24 h [2, 9]: 74.4 µg/mL
- solubility at 24 h [2, 10]: > 4440 µg/mL
- solubility at 24 h [2, 11]: 591 µg/mL
Compound: Cl.[2H]C([2H])(Oc1cccc(O)c1C=O)c1cccnc1-n1ccnc1C(C)C [Example 29, 2-hydroxy-6-((2-(2-isopropyl-1H-imidazol-1-yl)pyridin-3-yl)methoxy-d2)benzaldehyde hydrochloric acid]

- delta p50 [3]: −69%
Compound: CC(C)n1nccc1-c1cn(C)c(=O)cc1COc1cccc(O)c1C=O [Example 60, 2-hydroxy-6-((5-(1-isopropyl-1H-pyrazol-5-yl)-1-methyl-2-oxo-1,2-dihydropyridin-4-yl)methoxy)benzaldehyde]

- AUC(0-t) [1, 4]: 566 µg·h/mL
- Cmax [1, 5]: 50.3 µg/mL
- half-life [1, 6]: 26 h
- AUC(0-t) [1, 7]: 10.7 µg·h/mL
- Cmax ([1]; plasma, read-out: Cmax Plasma): 0.742 µg/mL
- half-life [1, 8]: 18 h
- solubility at 24 h [2, 9]: 8.16 µg/mL
- solubility at 24 h [2, 10]: 623 µg/mL
- solubility at 24 h [2, 11]: 35.7 µg/mL
Compound: Cl.[2H]C([2H])(Oc1cc(F)cc(O)c1C=O)c1cccnc1-c1ccnn1C(C)C [Example 27, 4-fluoro-2-hydroxy-6-((2-(1-isopropyl-1H-pyrazol-5-yl)pyridin-3-yl)methoxy-d2)benzaldehyde hydrochloric acid]

- delta p50 [3]: −85%
Compound: [2H]C([2H])([2H])C(n1nccc1-c1ncccc1COc1cccc(O)c1C=O)C([2H])([2H])[2H] [Example 30, 2-hydroxy-6-((2-(1-(propan-2-yl-1,1,1,3,3,3-d6)-1H-pyrazol-5-yl)pyridin-3-yl)methoxy)benzaldehyde]
